Experiment: molar heat capacity at constant pressure
Details: 101.33 kPa, Crystal 1, Small (less than 1 g) adiabatic calorimetry

N[C@@H](Cc1c[nH]c2ccccc12)C(=O)O [L-tryptophan]
Details | molar heat capacity at constant pressure [J/K/mol]
124.29 K | 103.18
125.09 K | 103.85
125.89 K | 104.51
126.7 K | 105.01
127.5 K | 105.51
128.3 K | 106.18
129.1 K | 106.67
129.91 K | 107.26
130 K | 107.26
130.71 K | 107.84
131.51 K | 108.34
132.31 K | 108.75
133.12 K | 109.25
133.92 K | 109.67
134.72 K | 110.5
135.52 K | 111.08
136.33 K | 111.66
137.13 K | 112.16
137.93 K | 112.74
138.74 K | 113.33
139.54 K | 113.83
140 K | 114.16
140.34 K | 114.32
141.14 K | 114.74
141.95 K | 115.49
142.75 K | 116.07
143.55 K | 116.57
144.35 K | 117.23
145.16 K | 117.65
145.96 K | 118.31
146.76 K | 118.73
147.56 K | 119.31
148.37 K | 119.81
149.17 K | 120.64
149.97 K | 121.14
150 K | 121.06
150.77 K | 121.56
151.57 K | 122.22
152.38 K | 122.97
153.18 K | 123.22
153.98 K | 123.64
154.78 K | 124.55
155.58 K | 124.8
156.38 K | 125.55
157.18 K | 126.13
157.98 K | 126.46
158.79 K | 127.46
159.59 K | 127.96
160 K | 128.04
160.39 K | 128.13
161.19 K | 128.96
161.99 K | 129.62
162.79 K | 130.2
163.59 K | 130.79
164.39 K | 131.29
165.19 K | 131.7
166 K | 131.95
166.8 K | 132.7
167.6 K | 133.45
168.39 K | 134.03
169.19 K | 134.61
169.99 K | 135.19
170 K | 135.03
170.79 K | 135.61
171.59 K | 136.19
172.39 K | 136.52
173.19 K | 137.11
173.99 K | 137.6
174.79 K | 138.1
175.59 K | 138.77
176.39 K | 139.18
177.19 K | 140.1
177.99 K | 140.51
178.79 K | 141.01
179.59 K | 141.6
180 K | 141.93
180.38 K | 142.09
181.18 K | 142.68
181.97 K | 143.34
182.76 K | 143.84
183.57 K | 144.59
184.36 K | 144.92
185.16 K | 145.59
185.96 K | 146.17
186.75 K | 146.67
187.55 K | 147.25
188.34 K | 147.67
189.14 K | 148.5
189.93 K | 149.16
190 K | 148.91
190.73 K | 149.58
191.53 K | 149.91
192.32 K | 150.49
193.12 K | 151.07
193.9 K | 151.91
194.7 K | 152.4
195.49 K | 152.82
196.29 K | 153.24
197.08 K | 153.82
197.87 K | 154.4
198.67 K | 155.23
199.46 K | 155.65
200 K | 156.06
200.26 K | 156.31
201.25 K | 156.89
202.45 K | 157.81
203.66 K | 158.64
204.86 K | 159.55
206.06 K | 160.3
207.27 K | 161.3
208.48 K | 162.22
209.68 K | 162.96
210 K | 163.21
210.89 K | 163.88
212.09 K | 164.54
213.3 K | 165.54
214.51 K | 166.21
215.73 K | 166.95
216.93 K | 167.95
218.14 K | 169.28
219.36 K | 170.2
220 K | 170.28
220.57 K | 170.86
221.79 K | 171.61
223 K | 172.77
224.22 K | 173.69
225.43 K | 174.11
226.65 K | 175.1
227.87 K | 176.35
229.09 K | 177.18
230 K | 177.76
230.31 K | 178.01
231.54 K | 179.09
232.76 K | 179.76
233.98 K | 180.59
235.21 K | 181.67
236.43 K | 182.75
237.66 K | 183.67
238.88 K | 184.5
240 K | 185.25
240.11 K | 185.41
241.34 K | 186.24
242.57 K | 187.33
243.8 K | 188.07
245.03 K | 188.74
246.26 K | 190.07
247.5 K | 190.82
248.75 K | 191.98
249.99 K | 192.56
250 K | 192.81
251.23 K | 193.73
252.46 K | 194.81
253.7 K | 195.72
254.94 K | 196.72
256.18 K | 197.63
257.43 K | 198.47
258.67 K | 199.3
259.92 K | 200.3
260 K | 200.38
261.16 K | 201.13
262.41 K | 202.04
263.66 K | 203.04
264.91 K | 204.12
266.17 K | 204.87
267.42 K | 206.03
268.69 K | 207.2
269.95 K | 208.19
270 K | 208.03
271.21 K | 208.86
272.47 K | 210.02
273.73 K | 210.77
274.99 K | 211.6
276.25 K | 212.93
277.51 K | 213.85
278.78 K | 214.51
280 K | 215.76
280.05 K | 215.84
281.32 K | 216.76
282.59 K | 217.42
283.86 K | 218.5
285.13 K | 219.83
286.41 K | 220.17
287.69 K | 221.58
288.96 K | 222.74
290 K | 223.83
290.24 K | 223.49
291.52 K | 224.57
292.8 K | 225.16
294.08 K | 226.4
295.36 K | 227.48
296.65 K | 227.73
297.93 K | 228.9
298.15 K | 228.98
299.23 K | 229.65
300 K | 230.31
300.76 K | 230.56
302.42 K | 231.39
304.07 K | 232.81
305.72 K | 234.22
307.35 K | 235.3
308.99 K | 236.3
310 K | 237.05
310.61 K | 237.38
312.22 K | 239.21
313.83 K | 240.04
315.43 K | 240.54
317.02 K | 241.62
318.6 K | 242.87
320 K | 243.61
320.17 K | 243.78
321.71 K | 244.28
323.27 K | 246.27
324.81 K | 246.94
326.3 K | 247.85
327.82 K | 248.94
329.34 K | 250.02
330 K | 250.52
330.82 K | 251.18
332.31 K | 252.43
333.79 K | 253.51
335.26 K | 254.09
336.72 K | 255.17
338.17 K | 256.67
339.59 K | 256.42
340 K | 258
341.01 K | 258.66
342.42 K | 259.91
343.82 K | 260.91
345.21 K | 262.16
346.6 K | 263.24
347.91 K | 263.9
349.09 K | 265.81
350 K | 265.98
350.43 K | 266.89
351.76 K | 268.06
353.08 K | 269.06
354.39 K | 269.47
355.67 K | 270.14
356.94 K | 271.3
358.2 K | 272.71
359.46 K | 273.55
360 K | 273.71
360.69 K | 274.04
361.93 K | 275.13
363.07 K | 275.87
364.26 K | 276.54
365.45 K | 277.29
366.62 K | 277.95
367.71 K | 277.87
368.55 K | 278.87
369.68 K | 279.87
370 K | 279.62
370.81 K | 278.62
371.9 K | 280.61
372.99 K | 281.53
